This note sets out measurements from US9433687B2, “Anti-Notch3 antibodies and antibody-drug conjugates” (Pfizer Inc., priority 2012, dated 2016).

Test [1] deals with OVCAR3 ovarian xenografts. The experiment in a line: OVCAR3 ovarian xenograft model. To be noted: dose 20 mg/kg intraperitoneally Q7d×8.
Another test deals with HCC2429 (lung cancer). In words: In vitro cytotoxicity (MTS), HCC2429. The format is cell-based, human. The settings on record: Table 13; four days; LP = lacked potency. The method, then:
(§1) The effects of anti-Notch3 ADCs were assessed on 1) cell lines endogenously expressing Notch3 protein: HCC2429 (lung cancer), OVCAR3 (ovarian cancer) and MDA-MB-468 (breast cancer), 2) cell lines engineered to over-express full length human Notch3 protein: MDA-MB-468/hNotch3 and U2OS/hNotch3, and 3) a negative control cell line (SW900) using an MTS cellular viability indicator (Promega, Madison, Wis.). These cell lines were cultured with increasing concentrations of anti-Notch3 ADCs comprising rat-human chimeric anti-Notch3 antibodies, ch28 and ch75, and humanized anti-Notch3 antibodies, hu28 and hu75, conjugated to various linker-payload combinations of the present invention. As a specificity control for the anti-Notch3-ADCs, non-targeted control-ADCs (huNeg8.8-ADCs or ch2H6-ADCs) were also tested on the same cell lines. After four days, viability of each culture was assessed. IC50 values were calculated by logistic non-linear regression, model #203 with XL fit v4.2 (IDBS, Guildford, Surry, UK) and presented as ng Ab/mL. The drug antibody ratio (DAR) is also provided.
(§2) This process generated the anti-Notch3 cysteine mutant ADCs: hu28-(L443C)-vc0101 and hu28-(L443C/κK183C)-vc0101. The activity of the anti-Notch3 cysteine mutant ADCs were assessed on cell lines endogenously expressing Notch3 protein: HCC2429 (lung cancer) and OVCAR3 (ovarian cancer) using an MTS cellular viability indicator as described in previous Examples.

Another test concerns OVCAR3 (ovarian cancer). The experiment in a line: In vitro cytotoxicity (MTS), OVCAR3. The settings on record: Table 13; four days; LP = lacked potency. The format is cell-based, human. The method, then:
as §1, §2

For test [2], the system named is MDA-MB-468 (breast cancer). In words: In vitro cytotoxicity (MTS), MDA-MB-468. The format is cell-based, human. To be noted: Table 13; four days; LP = lacked potency. The method, then:
as §1

In the case of `N.N.O=C([O-])C1(C(=O)[O-])CCC1.[Pt+2]` [carboplatin, reference compound], the tumor volume is 167 mm3 in test [1] (DAY 0); 242 mm3 in test [1] (DAY 3); 246 mm3 in test [1] (DAY 6); 311 mm3 in test [1] (DAY 11); 426 mm3 in test [1] (DAY 14); 473 mm3 in test [1] (DAY 18). The tumor volume came out at 475 mm3 in test [1] (DAY 21); 552 mm3 in test [1] (DAY 25); 640 mm3 in test [1] (DAY 28); 692 mm3 in test [1] (DAY 31); 811 mm3 in test [1] (DAY 34); 869 mm3 in test [1] (DAY 38). For the same molecule, the tumor volume in test [1] (DAY 41) turned out to be 906 mm3; in test [1] (DAY 45) it was 1009 mm3; in test [1] (DAY 49), 1149 mm3; in test [1] (DAY 53), 1290 mm3; in test [1] (DAY 56), 1370 mm3; in test [1] (DAY 59) it was 1514 mm3. In addition, the tumor volume was 1783 mm3 in test [1] (DAY 63) and 1844 mm3 in test [1] (DAY 67).

B1: ch28-me0131 (conjugate)
VH: EVQLVESGGGLVQPGRSLTLSCVASGFTFRDYGMTWIRQAPGKGLTWVAYISSGSNYIYYAEAVKGRFTISRDNAKNTLYLQMTSLRSEDTALYFCTRRGPFVLDAWGQGASVTVSS
VL: DIQMTQSPSFLSASVGDRVTINCKASQSINRYLHWFQQKLGEAPKLLIYNANGLQTGIPSRFSGSGSGTDFTLTISSLQSEDVATYFCLQHNTWPDTFGAGTKLELK
In the case of B1, in the test on HCC2429 (lung cancer), the “IC50 (ng Ab/mL) ± S.E.M., HCC2429” value is reported as 30 ng Ab/mL. For the same molecule, the “IC50 (ng Ab/mL) ± S.E.M., OVCAR3” value in the test on OVCAR3 (ovarian cancer) was 8 ± 2.0 ng Ab/mL. For the same molecule, in test [2], the “IC50 (ng Ab/mL) ± S.E.M., MDA-MB-468” value worked out at 24 ± 14.0 ng Ab/mL.

B2: ch28-mc8261 (conjugate)
VH: EVQLVESGGGLVQPGRSLTLSCVASGFTFRDYGMTWIRQAPGKGLTWVAYISSGSNYIYYAEAVKGRFTISRDNAKNTLYLQMTSLRSEDTALYFCTRRGPFVLDAWGQGASVTVSS
VL: DIQMTQSPSFLSASVGDRVTINCKASQSINRYLHWFQQKLGEAPKLLIYNANGLQTGIPSRFSGSGSGTDFTLTISSLQSEDVATYFCLQHNTWPDTFGAGTKLELK
Take B2: in test [2], the “IC50 (ng Ab/mL) ± S.E.M., MDA-MB-468” value is reported as 12147 ± 4806.4 ng Ab/mL.

B3: ch28-MalPeg6C2-0131 (conjugate)
VH: EVQLVESGGGLVQPGRSLTLSCVASGFTFRDYGMTWIRQAPGKGLTWVAYISSGSNYIYYAEAVKGRFTISRDNAKNTLYLQMTSLRSEDTALYFCTRRGPFVLDAWGQGASVTVSS
VL: DIQMTQSPSFLSASVGDRVTINCKASQSINRYLHWFQQKLGEAPKLLIYNANGLQTGIPSRFSGSGSGTDFTLTISSLQSEDVATYFCLQHNTWPDTFGAGTKLELK
Regarding B3, the “IC50 (ng Ab/mL) ± S.E.M., OVCAR3” value in the test with OVCAR3 (ovarian cancer) was 10 ± 2.0 ng Ab/mL. The “IC50 (ng Ab/mL) ± S.E.M., MDA-MB-468” value in test [2] is listed as 10 ± 1.0 ng Ab/mL.

B4: ch28-MalPeg6C2-8261 (conjugate)
VH: EVQLVESGGGLVQPGRSLTLSCVASGFTFRDYGMTWIRQAPGKGLTWVAYISSGSNYIYYAEAVKGRFTISRDNAKNTLYLQMTSLRSEDTALYFCTRRGPFVLDAWGQGASVTVSS
VL: DIQMTQSPSFLSASVGDRVTINCKASQSINRYLHWFQQKLGEAPKLLIYNANGLQTGIPSRFSGSGSGTDFTLTISSLQSEDVATYFCLQHNTWPDTFGAGTKLELK
For the molecule B4, the “IC50 (ng Ab/mL) ± S.E.M., MDA-MB-468” value in test [2] was 83 ± 35.5 ng Ab/mL.

B5: ch28-mc3377 (conjugate)
VH: EVQLVESGGGLVQPGRSLTLSCVASGFTFRDYGMTWIRQAPGKGLTWVAYISSGSNYIYYAEAVKGRFTISRDNAKNTLYLQMTSLRSEDTALYFCTRRGPFVLDAWGQGASVTVSS
VL: DIQMTQSPSFLSASVGDRVTINCKASQSINRYLHWFQQKLGEAPKLLIYNANGLQTGIPSRFSGSGSGTDFTLTISSLQSEDVATYFCLQHNTWPDTFGAGTKLELK
In the case of B5, the “IC50 (ng Ab/mL) ± S.E.M., OVCAR3” value with OVCAR3 (ovarian cancer) is 14 ± 5.5 ng Ab/mL. Moreover, in test [2], the “IC50 (ng Ab/mL) ± S.E.M., MDA-MB-468” value is 27 ± 11.3 ng Ab/mL.

B6: ch28-vc6780 (conjugate)
VH: EVQLVESGGGLVQPGRSLTLSCVASGFTFRDYGMTWIRQAPGKGLTWVAYISSGSNYIYYAEAVKGRFTISRDNAKNTLYLQMTSLRSEDTALYFCTRRGPFVLDAWGQGASVTVSS
VL: DIQMTQSPSFLSASVGDRVTINCKASQSINRYLHWFQQKLGEAPKLLIYNANGLQTGIPSRFSGSGSGTDFTLTISSLQSEDVATYFCLQHNTWPDTFGAGTKLELK
Regarding B6, the “IC50 (ng Ab/mL) ± S.E.M., HCC2429” value with HCC2429 (lung cancer) is given as 324 ± 78.9 ng Ab/mL. Moreover, the “IC50 (ng Ab/mL) ± S.E.M., OVCAR3” value with OVCAR3 (ovarian cancer) amounted to 90 ± 48.5 ng Ab/mL. Further, the “IC50 (ng Ab/mL) ± S.E.M., MDA-MB-468” value in test [2] worked out at 4407 ± 2128.2 ng Ab/mL.

B7: ch75-MalPeg6C2-8261 (conjugate)
VH: QVKLLQSGAALVKPGASVKMSCKASGYAFTDYWVTWVKQSHGKSLEWIGEISPNSGGTNFNEKFKGKATLTVDKSTSTAYMELSRLTSEDSAIYYCTRGEIRYNWFAYWGQGTLVTVSS
VL: DIQMTQSPSSLSASVGDRVTITCKASQNVGNNIAWYQQKPGKAPKLLIYYASNRYTGVPSRFSGSGYGTDFTLTISSLQPEDFATYYCQRLYNSPFTFGGGTKVEIK
As for B7, the “IC50 (ng Ab/mL) ± S.E.M., MDA-MB-468” value in test [2] is 4255 ± 2375^ ng Ab/mL.

B8: ch75-me0131 (conjugate)
VH: QVKLLQSGAALVKPGASVKMSCKASGYAFTDYWVTWVKQSHGKSLEWIGEISPNSGGTNFNEKFKGKATLTVDKSTSTAYMELSRLTSEDSAIYYCTRGEIRYNWFAYWGQGTLVTVSS
VL: DIQMTQSPSSLSASVGDRVTITCKASQNVGNNIAWYQQKPGKAPKLLIYYASNRYTGVPSRFSGSGYGTDFTLTISSLQPEDFATYYCQRLYNSPFTFGGGTKVEIK
In the case of B8, in test [2], the “IC50 (ng Ab/mL) ± S.E.M., MDA-MB-468” value amounted to 259 ng Ab/mL.

B9: ch75-mc3377 (conjugate)
VH: QVKLLQSGAALVKPGASVKMSCKASGYAFTDYWVTWVKQSHGKSLEWIGEISPNSGGTNFNEKFKGKATLTVDKSTSTAYMELSRLTSEDSAIYYCTRGEIRYNWFAYWGQGTLVTVSS
VL: DIQMTQSPSSLSASVGDRVTITCKASQNVGNNIAWYQQKPGKAPKLLIYYASNRYTGVPSRFSGSGYGTDFTLTISSLQPEDFATYYCQRLYNSPFTFGGGTKVEIK
In the case of B9, the “IC50 (ng Ab/mL) ± S.E.M., MDA-MB-468” value in test [2] came to 560 ng Ab/mL.
